Data on twelve compounds can be found in patent US8524898B2, “Proton acceptor iminium/carbocation-type coupling agents” (Luxembourg Bio Technologies Ltd., priority 2007, dated 2013).

Where a name gives a salt, the structure may show the parent alone.

The nature of one data set: Maximal solubility of coupling agents in DMF. The following applies: calculated molarity in DMF.
With “1-((dimethylimino)(morpholino)methyl)3-H-6-chlorobenzo[1,2,3]triazolo-1-ium-3-olate hexafluorophosphate [6-Cl-HDMB]”, the Molarity is reported as 1.0. On to “1-((dimethylimino)(morpholino)methyl)3-H-6-trifluoromethylbenzo[1,2,3]-triazolo-1-ium-3-olate hexafluorophosphate [6-CF3HDMB]”, for which the Molarity is reported as 1.02.

The data set is the same for the next values; noted with them: maximal solubility; mass of agent per volume of DMF.
Regarding “1-((dimethylimino)(morpholino)methyl)3-H-6-chlorobenzo[1,2,3]triazolo-1-ium-3-olate hexafluorophosphate [6-Cl-HDMB]”, the Wt/ml came to 0.456. The compound “1-((dimethylimino)(morpholino)methyl)3-H-6-trifluoromethylbenzo[1,2,3]-triazolo-1-ium-3-olate hexafluorophosphate [6-CF3HDMB]” yielded a Wt/ml of 0.475. As for “1-((dimethylimino)(morpholino)methyl)3-H-[1,2,3]triazolo[4,5-b]pyridine-1-3-olate hexafluorophosphate [HDMA]”, the Wt/ml came out at 0.285.

Experiment in the next data set: not given
Conditions: not given
For orientation: melting point means the temperature of the solid-liquid transition. Compound `CN(C)C(n1n[n+]([O-])c2ccc(Cl)cc21)=[N+]1CCCC1` (as salt: phosphate) registered a melting point of 192 to 193 °C. For the compound `O=c1ccccn1OC(N1CCOCC1)=[N+]1CCCC1` (as salt: phosphate), the melting point is 145 to 146 °C (dec.). On the same count and under the same terms, to `CN(C)C(O/N=C(\C#N)c1ccccn1)=[N+](C)C` (as salt: phosphate) belongs 169 to 171 °C. In turn, `C[N+](C)=C(ON=C(C#N)C#N)N1CCOCC1` (as salt: phosphate) [HDMODC, 1-[(1-(dicyanomethyleneaminooxy)-dimethylamino-morpholinomethylene)]methanaminium hexafluorophosphate] yielded a melting point of 118 to 119 °C. On to `CCOC(=O)C(C#N)=NOC(N(C)C)=[N+]1CCCC1` (as salt: phosphate) [HDmPyOCC, 1-[(1-(Cyano-2-ethoxy-2-oxoethylideneaminooxy)-dimethylamino-pyrrolodinomethylene)]methanaminium hexafluorophosphate], for which the melting point was 126 to 127 °C (dec.). On the same count and under the same terms, the same measure for `CN(C)C(ON=C(C#N)C#N)=[N+]1CCCC1` (as salt: phosphate) [HDmPyODC, 1-[(1-(dicyanomethylideneaminooxy)-dimethylamino-pyrrolodinomethylene)]methanaminium hexafluorophosphate]: 146 to 147 °C (dec.); for `[O-][n+]1nn(C(N2CCCC2)N2CCOCC2)c2cccnc21` (centres unmarked) (as salt: phosphate) [HMPyA, 1-(morpholino(pyrrolidinium-1-ylidene)methyl)-1H-[1,2,3]triazolo[4,5-I]pyridine 3-oxide hexafluorophosphate]: 206 to 208 °C (dec.); for `CCOC(=O)/C(C#N)=N/OC(N1CCOCC1)=[N+]1CCCC1` (as salt: phosphate) [HMPyOCC, 1-((1-cyano-2-ethoxy-2-oxoethylideneaminooxy)(morpholino)methylene) pyrrolidinium hexafluorophosphate]: 171 to 172 °C. Take `CCOC(=O)/C(C#N)=N/OC(N(C)C)N(C)C` (as salt: phosphate) [HTOCC, O-[Cyano(ethoxycarbonyl)methylidene)amino]-1,1,3,3-tetramethyluronium Hexafluorophosphate]: the melting point is 135 to 137 °C (dec.).
